In PubChem BioAssay (NCI):
Where “and” joins values, the source holds several entries; their conditions need not be identical. Equal entries are not always repeated.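 Method: 48-hour compound exposure of cells in 96-well plates, five concentrations, linear interpolation of endpoints. At the GI50, growth is halved. TGI: total growth inhibition.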

Key:
Assay in all cases: NCI tumour cell line growth inhibition, 48 h
KM12 colon = tested on: KM12 colon
TK-10 renal = tested on: TK-10 renal
SF-539 CNS = tested on: SF-539 CNS
SN12C renal = tested on: SN12C renal
BT-549 breast = tested on: BT-549 breast
HOP-62 NSCLC = tested on: HOP-62 NSCLC
OVCAR-4 ovarian = tested on: OVCAR-4 ovarian
HT29 colon = tested on: HT29 colon
MDA-MB-231 breast = tested on: MDA-MB-231 breast
NCI-H23 lung = tested on: NCI-H23 lung

| SMILES | TGI (KM12 colon) | TGI (TK-10 renal) | TGI (SF-539 CNS) | TGI (SN12C renal) | TGI (BT-549 breast) | TGI (HOP-62 NSCLC) | TGI (OVCAR-4 ovarian) [µM] | TGI (HT29 colon) | TGI (MDA-MB-231 breast) | TGI (NCI-H23 lung) | GI50 (KM12 colon) [µM] | GI50 (TK-10 renal) | GI50 (SF-539 CNS) | GI50 (SN12C renal) [µM] | GI50 (BT-549 breast) | GI50 (HOP-62 NSCLC) [µM] | GI50 (OVCAR-4 ovarian) [µM] | GI50 (HT29 colon) | GI50 (NCI-H23 lung) | GI50 (MDA-MB-231 breast) [µM] |
| --- | --- | --- | --- | --- | --- | --- | --- | --- | --- | --- | --- | --- | --- | --- | --- | --- | --- | --- | --- | --- |
| CCc1nc(N)nc(N)c1-c1ccc([N+](=O)[O-])c(Cl)c1 | > 100 µM | > 100 µM | > 94.4 µM | > 100 µM | > 100 µM | > 100 µM | > 100 | > 100 µM | > 100 µM | > 100 µM |  |  |  |  |  |  |  |  |  |  |
| COc1ccc(S(=O)(=O)NCCNc2nccc(-c3c(-c4ccccc4)nc4sccn34)n2)cc1 | > 100 µM | > 100 µM | > 100 µM | > 100 µM | > 100 µM | > 100 µM | > 100 | > 100 µM |  | > 100 µM | 0.513 | 5.07 µM | 13.7 µM | 1.93 | 3.56 µM | 15.3 | 3.62 | 1.72 µM | 7.35 µM |  |
| CCCCCCN(CCCCCC)CC(O)c1cccc2ccc(Cl)cc12 (configuration not stated) | 19.6 µM | 25.4 µM | 4.95 µM | 23.6 µM | 28 µM | 14.5 µM | 33 | 18.5 µM | 16.2 µM | 19.5 µM | 5.48 | 12.4 µM | 1.58 µM | 10.7 | 14.1 µM | 3.71 | 7.44 | 3.86 µM | 5.42 µM | 4.18 |
| CCN(CC)CCOc1ccc(C2=C(c3ccccc3)CCc3cc(OC)ccc32)cc1 | 6.85 µM | 9.47 µM | 2.89 µM | 20 µM | 15.2 µM | 9.6 µM | 17.2 | 1.87 µM | 7.44 µM | 11.3 µM | 2.46 | 2.74 µM | 1.52 µM | 5.48 | 4.17 µM | 3.08 | 3.54 | 0.445 µM | 2.9 µM | 2.26 |
| CCCCCCCCCCCCCCCCCC1=NC(C)(C)CN1CCO | 3.16 µM | 3.31 µM | 3.15 µM | 3.61 µM | 48 µM | 3.54 µM | 9.8 | 2.66 µM | 3.41 µM | 3.33 µM | 1.78 | 1.73 µM | 1.75 µM | 1.61 | 19.8 µM | 1.82 | 3.12 | 1.37 µM | 1.71 µM | 1.77 |
| Cc1cc(N)c2ccccc2[n+]1CCCCCCCCCC[n+]1c(C)cc(N)c2ccccc21 | 0.65 µM and 1.49 µM | 7.63 µM and 15.5 µM and 24.3 µM | 1.44 µM and 9.96 µM and 3.8 µM | > 14 µM and 7.39 µM and 16.7 µM | 1.57 µM and 3.29 µM and 5.32 µM | 2.8 µM and 9.51 µM |  | 1.51 µM and 5.47 µM and 4.62 µM | > 11.5 µM and 12.7 µM | > 12.4 µM and 3.96 µM and 3.89 µM | 0.145 | 0.684 µM and 3.13 µM | 0.241 µM and 1.56 µM | 0.159 | 0.304 µM and 1.5 µM | 0.201 |  | 0.223 µM and 1.55 µM | 0.236 µM and 0.484 µM | 0.505 |
| Nc1ncnc2c1ncn2Cc1ccc(C23CC4CC(CC(C4)C2)C3)c(O)c1 | > 100 µM | 50.2 µM | 75.1 µM | > 100 µM | > 100 µM | 34.6 µM | 8.66 | > 100 µM | 63.1 µM |  | 13.7 | 7.24 µM | 23.4 µM | 36.9 | 23.5 µM | 9.06 | 2.71 | 15.1 µM |  | 13.6 |
| C=C(C)[C@]12CC(C)C34OC(/C=C\C=C\CCCCCCCCC)(O[C@@H]1[C@@H]3[C@@H]1O[C@]1(CO)[C@@H](O)[C@]1(O)C(=O)C(C)=C[C@@H]41)O2 (some centres not stated) | 21.7 µM | 19.1 µM | 17.2 µM | 7.86 µM | 18.5 µM |  | 22.6 | 8.26 µM | 15.4 µM | 29.2 µM |  |  |  |  |  |  |  |  |  |  |
| O=C(CC(C(=O)O)N1CCOCC1)c1ccccc1 (configuration not stated) |  | 30.1 µM | 45.7 µM | 35.7 µM | 33.5 µM | 86.9 µM | 43.2 | 32.1 µM | 32.4 µM | 40.6 µM |  |  |  |  |  |  |  |  |  |  |
| O=C1CC2Sc3ccccc3N=C2N1c1ccc(Cl)cc1Cl (configuration not stated) | > 100 µM | > 100 µM |  | > 100 µM |  | > 100 µM | > 100 | > 100 µM |  | > 100 µM |  |  |  |  |  |  |  |  |  |  |
| CC(C)=C1CCC(CN2CCCC2)C1=O (configuration not stated) | > 100 µM | > 100 µM | > 100 µM | 33.1 µM |  | > 100 µM | 32.3 | 53.5 µM |  | > 100 µM |  |  |  |  |  |  |  |  |  |  |
| Cc1cccc(N2C(=O)/C(=C/c3ccc(N(CCC#N)CCC#N)cc3C)N=C2c2cc([N+](=O)[O-])ccc2Cl)c1 | > 100 µM | > 100 µM | > 100 µM | > 100 µM |  | > 100 µM | > 100 | > 100 µM |  | > 100 µM |  |  |  |  |  |  |  |  |  |  |
| O=C(OCc1nc2ccc(Br)cc2c(=O)n1-c1ccccc1)c1ccccc1O | > 100 µM | > 100 µM | > 100 µM | > 100 µM |  | > 100 µM | > 100 | > 100 µM |  | > 100 µM |  |  |  |  |  |  |  |  |  |  |
| CCOc1cccnc1/C=N/NC(N)=S | > 100 µM |  | 9.59 µM | > 100 µM | > 100 µM | 48.5 µM | > 100 | > 100 µM | > 100 µM | > 100 µM | 4.38 |  | 2.8 µM | 3.5 | 6.02 µM | 3.71 | 2.79 | 4.34 µM | 5.05 µM | 3.27 |
| CCOC(=O)NNC(=O)NC12CC3CC(CC(C3)C1)C2 | > 100 µM | > 100 µM | > 100 µM | > 100 µM |  | > 100 µM | > 100 | > 100 µM |  | > 100 µM |  |  |  |  |  |  |  |  |  |  |
| CCOC(=N)CC(=O)NC(C)c1ccccc1 (configuration not stated) | > 100 µM | > 100 µM | > 100 µM | > 100 µM |  | > 100 µM | > 100 | > 100 µM |  | > 100 µM |  |  |  |  |  |  |  |  |  |  |
